In patent publication US8779144B2, “Bicycloheteroaryl compounds as P2X7 modulators and uses thereof” (Evotec (US) Inc., priority 2006, dated 2014):

System: IL-1β release from THP-1 cells
Test: IL-1β release assay in differentiated THP-1 cells stimulated with BzATP (ELISA)
Assay type: cell-based
Details: Homo sapiens; for inhibition at 0.3 µM: 0.3 uM compound, BzATP 250 uM, read-out: IL-1β % Inhib. @ 0.3 uM.; for IC50: released IL-1β as in Example 9, four parameter logistic fit, read-out: IL-Iβ IC50
Method: THP-1 cells (ATCC Cat #285-IF-100) are plated in 96 well plates at a concentration of 200,000 cells per well and allowed to differentiate in RPMI-1640 media (ATCC Cat #30-2001) containing 10% FBS, 100 IU/mL penicillin, 100 ug/mL streptomycin, 100 ng/mL LPS and 100 ng/mL IFN-γ for 16 hours. Following differentiation, the cells are treated for an additional 2 hours in RPMI-1640 media containing 100 IU/mL penicillin, 100 ug/mL streptomycin and fresh LPS at 100 ng/mL. The cells are then pretreated for 30 minutes with the compound of interest at the appropriate concentration in RPMI media containing 100 IU/mL penicillin, 100 ug/mL streptomycin. Following the pretreatment 2′,3′-O-(4-benzoylbenzoyl)-adenosine 5′-triphosphate (Sigma Aldrich Cat # B6396) is added to a final concentration of 250 uM and the cells are incubated for an additional 45 minutes. 30 uL of cell supernatant is then collected and IL-113 levels determined via ELISA (R&D systems Cat. # HSLB50) according to manufacturer's recommendations using the Tecan Safire plate reader. Background adjusted IL-1β levels of drug treated and non-treated cells are used to calculate the percent inhibition. […]
The compounds set forth in Table 1 were tested for activity in a cellular model as described herein. Specifically, cells were pretreated with differing amounts of the compound under test and released IL-1β determined as in Example 9, above. Measurements were made and IC50 values, presented in Table 2, below, were determined by fitting the data to a four parameter logistic equation using GraphPad Prism software (GraphPad Software, Inc). The equation may be expressed by the following formula: Y=Bottom+(Top−Bottom)/(1+10^((LogEC50−X)*HillSlope)) Where X is the logarithm of concentration, Y is the response and Y starts at Bottom and goes to Top with a sigmoid shape.

Compound	inhibition at 0.3 µM [%]	IC50 [µM]
CC1(C)CC(C)(C)CC(O)(CNC(=O)c2cccc3c(=O)n(C(CO)CO)ccc23)C1 [Compound 2054]	51 to 75	0.233
O=C(NCc1ccc(F)c(Cl)c1)c1cccc2c(=O)n(C3CC3)ccc12 [Compound 2073]	> 76	0.151
CC(C(N)=O)n1ccc2c(C(=O)NCC3CCCCC3)cccc2c1=O (stereo not shown) [Compound 2049]	> 76	0.122
CC(=O)Nc1ccc(CN2CCc3c(ncnc3C(=O)NCC3CCCCC3)C2)cc1 [Compound 2015]	0 to 25	
C[C@H](C(N)=O)n1ccc2c(C(=O)NCc3ccc(Cl)c(C(F)(F)F)c3)cccc2c1=O [Compound 2058, 2-((R)-1-Carbamoyl-ethyl)-1-oxo-1,2-dihydro-isoquinoline-5-carboxylic acid 4-chloro-3-trifluoromethyl-benzylamide]	> 76	0.021
O=C(NCc1ccc(Cl)c(C(F)(F)F)c1)c1cccc2c(=O)n(C3CC3)ccc12 [Compound 2078]	> 76	0.0594
COCC(O)Cn1ccc2c(C(=O)NCC3(O)CCCC(C)(C)C3)cccc2c1=O (stereo not shown) [Compound 2046]	0 to 25	> 1
C[C@H](CO)n1ccc2c(C(=O)NCc3ccc(C(F)(F)F)cc3)cccc2c1=O [Compound 2068]	51 to 75	0.212
O=C(NCCc1ccccc1Cl)c1ncnc2c1CCN(Cc1ccccc1)C2 [Compound 2001]	0 to 25	> 1
Cc1ccc(CN2CCc3c(ncnc3C(=O)NCC3CCCCC3)C2)cc1 [Compound 2013]	0 to 25	
O=C(NCC1CCCCC1)c1ncnc2c1CCN(Cc1ccc(Cl)cc1)C2 [Compound 2009]	0 to 25	
C[C@@H](C(N)=O)n1ccc2c(C(=O)NCc3ccc(Cl)c(C(F)(F)F)c3)cccc2c1=O [Compound 2059, 2-((S)-1-Carbamoyl-ethyl)-1-oxo-1,2-dihydro-isoquinoline-5-carboxylic acid 4-chloro-3-trifluoromethyl-benzylamide]	> 76	0.0774
C[C@H](C(N)=O)n1ccc2c(C(=O)NCc3ccc(Cl)c(Cl)c3)cccc2c1=O [Compound 2060]	> 76	0.0382
O=C(NCc1ccc(C(F)(F)F)c(F)c1)c1cccc2c(=O)n(C3CC3)ccc12 [Compound 2076]	> 76	0.119
C[C@@H](C(N)=O)n1ccc2c(C(=O)NCC34CC5CC(CC(C5)C3)C4)cccc2c1=O [Compound 2065, 2-((S)-1-Carbamoyl-ethyl)-1-oxo-1,2-dihydro-isoquinoline-5-carboxylic acid (adamantan-1-ylmethyl)-amide]	> 76	0.00044
Cc1ccc2c(c1C(=O)NCc1ccc(C(F)(F)F)c(F)c1)CCN(C(=O)C1CCC1)C2 [Compound 2081]	> 76	0.149
C[C@H](NC(=O)c1cccc2c(=O)n([C@@H](C)C(N)=O)ccc12)c1ccc(Cl)cc1 [Compound 2066]	0 to 25	> 1
CC1(C)CCCC(O)(CNC(=O)c2cccc3c(=O)n(CCO)ccc23)C1 (stereo not shown) [Compound 2051]	51 to 75	0.256
CC1(C)OCC(Cn2ccc3c(C(=O)NCC4CCCCCC4)cccc3c2=O)O1 (stereo not shown) [Compound 2038]	0 to 25	0.606
O=C(NCC1(O)CCCCCC1)c1cccc2c(=O)n(Cc3ccc(F)cc3)ccc12 [Compound 2031, 2-(4-Fluoro-benzyl)-1-oxo-1,2-dihydro-isoquinoline-5-carboxylic acid (1-hydroxy-cycloheptylmethyl)-amide]	> 76	0.042
CC(C(N)=O)n1ccc2c(C(=O)NCC3CCCCCC3)cccc2c1=O (stereo not shown) [Compound 2050]	0 to 25	0.653
O=C(NCc1ccc(Cl)c(C(F)(F)F)c1)c1cccc2c(=O)n(C(CO)CO)ccc12 [Compound 2053, 2-(2-Hydroxy-1-hydroxymethyl-ethyl)-1-oxo-1,2-dihydro-isoquinoline-5-carboxylic acid 4-chloro-3-trifluoromethyl-benzylamide]	> 76	0.0404
C[C@H](CO)n1ccc2c(C(=O)NCC3CCCCCC3)cccc2c1=O [Compound 2069, 2-((R)-2-Hydroxy-1-methyl-ethyl)-1-oxo-1,2-dihydro-isoquinoline-5-carboxylic acid cycloheptylmethyl-amide]	> 76	0.00691
O=C(NCC1CCCCC1)c1ncnc2c1CCN(Cc1ccccc1)C2 [Compound 2004]	0 to 25	
COc1ccc(CN2CCc3c(ncnc3C(=O)NCC3CCCCC3)C2)cc1 [Compound 2012]	0 to 25	
Cc1ccc(C2(CNC(=O)c3ncnc4c3CCN(Cc3ccccc3)C4)CCCCC2)cc1 [Compound 2018]	0 to 25	

Compound	inhibition at 0.3 µM [%]	IC50 [µM]
Cc1ccc2c(c1C(=O)NCc1ccc(C(F)(F)F)c(F)c1)CCN(C(=O)C1CC1)C2 [Compound 2080]	26 to 50	0.356
O=C(NCc1cccc(C(F)(F)F)c1F)c1cccc2c(=O)n(C3CC3)ccc12 [Compound 2077]	51 to 75	0.162
O=C(NCc1ccc(C(F)(F)F)cc1)c1cccc2c(=O)n(C3CC3)ccc12 [Compound 2071]	0 to 25	0.755
C[C@@H](NC(=O)c1cccc2c(=O)n([C@@H](C)C(N)=O)ccc12)c1ccc(Cl)cc1 [Compound 2067]	0 to 25	> 1
C[C@H](C(N)=O)n1ccc2c(C(=O)NCC3(O)CCCCCC3)cccc2c1=O [Compound 2057]	> 76	0.0261
O=C(NCC1CCCCC1)c1ncnc2c1CCN(Cc1cccnc1)C2 [Compound 2006]	0 to 25	
CC1(C)CCCC(O)(CNC(=O)c2ncnc3c2CCN(Cc2ccccc2)C3)C1 (stereo not shown) [Compound 2017]	0 to 25	
O=C(NCc1ccc(Cl)c(Cl)c1)c1cccc2c(=O)n(C3CC3)ccc12 [Compound 2072, 2-Cyclopropyl-1-oxo-1,2-dihydro-isoquinoline-5-carboxylic acid 3,4-dichloro-benzylamide]	> 76	0.0592
O=C(NCCc1ccccc1)c1ncnc2c1CCNC2 [Compound 2003]	0 to 25	
O=C(NCC1CCCCC1)c1ncnc2c1CCN(Cc1ccccn1)C2 [Compound 2010]	0 to 25	
O=C(NCC1CCCCC1)c1cccc2c(=O)n(CCO)ccc12 [Compound 2052]	0 to 25	0.694
O=C(NCC1CCCCCC1)c1cccc2c(=O)n(Cc3ccc4c(c3)OCCO4)ccc12 [Compound 2036]	> 76	0.0116
COCC(O)Cn1ccc2c(C(=O)NCC3CCCCCC3)cccc2c1=O (stereo not shown) [Compound 2044]	0 to 25	> 1
CS(=O)(=O)c1ccc(CN2CCc3c(ncnc3C(=O)NCC3CCCCC3)C2)cc1 [Compound 2014]	0 to 25	
O=C(NCC1CCCCC1)c1cccc2c(=O)n(C(CO)CO)ccc12 [Compound 2055]	51 to 75	0.269
O=C(NCC1CCCCC1)c1ncnc2c1CCN(Cc1cccc(Cl)c1)C2 [Compound 2011]	0 to 25	
O=C(NCc1ccc(F)c(C(F)(F)F)c1)c1cccc2c(=O)n(C3CC3)ccc12 [Compound 2075]	> 76	0.158
C[C@@H](C(N)=O)n1ccc2c(C(=O)NCC3(O)CCCCCC3)cccc2c1=O [Compound 2056]	26 to 50	0.506
O=C(NCC1CCCCC1)c1ncnc2c1CCN(Cc1ccncc1)C2 [Compound 2007]	0 to 25	
Cc1ccc2c(c1C(=O)NCc1ccc(C(F)(F)F)c(F)c1)CCN(C(=O)C1(C)CC1)C2 [Compound 2082]	0 to 25	0.667
Cn1ccc2c(C(=O)NCC3(O)CCCC(C)(C)C3)cccc2c1=O (stereo not shown) [Compound 2045]	0 to 25	> 1
O=C(NCc1ccc(Cl)c(F)c1)c1cccc2c(=O)n(C3CC3)ccc12 [Compound 2074]	> 76	0.107
O=C(NCC1CCCCCC1)c1cccc2c(=O)n(C3CC3)ccc12 [Compound 2070, 2-Cyclopropyl-1-oxo-1,2-dihydro-isoquinoline-5-carboxylic acid cycloheptylmethyl-amide]	> 76	0.0165
O=C(NCC12CC3CC(CC(C3)C1)C2)c1ncnc2c1CCN(Cc1ccccc1Cl)C2 [Compound 2025]	26 to 50	
O=C(NCC1CCCCCC1)c1cccc2c1CCN(C(CO)CO)C2=O [Compound 2037]	51 to 75	0.138
